Source: patent US20250129080A1, “COMPOSITIONS AND METHODS OF USING THE SAME FOR TREATMENT OF NEURODEGENERATIVE AND MITOCHONDRIAL DISEASE” (Mitokinin, Inc., priority 2021, published 2025)

Key:
SKOV3 cells = experiment: In vitro mitosafety (glucose/galactose) assay; format: cell-based; conditions: highest mito-safe dose (gal/glc >0.80, IC20, SKOV3 cells, 20 hours) divided by mt-Keima EC50
Experimental: Briefly, SKOV3 cells (ATCC HTB-77) were plated in DMEM (Corning 10-013-CV) medium containing 25 mM glucose or DMEM with no glucose (Gibco 11966-025) supplemented with 10 mMV galactose at 9,000 cells/well in 96 well plates (Corning costar 3610). 24 hrs later, compounds, in DMSO, were added at various concentrations to a final 0.1% DMSO for all wells. […] After a 15 minute incubation cellular ATP levels were read out using a Promega GloMax® DiscoverMicroplate Reader.
The ratio of relative CellTiter-Glo values from cells grown in galactose to cells grown in glucose was determined (gal/glc ratio). The gal/glc ratio vs concentration is then graphed, and non-linear regression is used to find the highest concentration of MTK compound at which gal/glc >0.80 (the “highest mito-safe dose”, or IC20).

[1] = tested on: HeLa cells expressing mt-Keima and YFP-Parkin (HeLa MKYP); experiment: Human mt-Keima mitophagy assay; format: cell-based; conditions: Homo sapiens, HeLa, 16 hrs with compound, then FCCP/oligomycin for 6 hours, FACS
Experimental: Briefly, HeLa cells expressing mt-Keima and YFP-Parkin (HeLa MKYP) were plated at 10,000 cells/well in 96 well plates along with compounds at various concentrations. Following 16 hrs of incubation, cells were treated with […] FCCP/oligomycin for 6 hours, then analyzed via FACS for the presence of mitochondria in lysosomes (as determined by an emissions spectrum shift from the pH-sensitive mt-Keima tag).

| SMILES | EC50 [1] | Mito-Safety Index (highest safe dose/EC50) (SKOV3 cells) |
| --- | --- | --- |
| F[C@H]1CCN([C@H]2COc3ccccc3[C@@H]2Nc2ncnc3[nH]c(C4CC4)cc23)C1 [EP-0042536, 6-Cyclopropyl-N-((3R,4S)-3-((S)-3-Fluoropyrrolidin-1-Yl)Chroman-4-Yl)-7H-Pyrrolo[2,3-D]Pyrimidin-4-Amine] | 154 nM | 89.78 |
| FC(F)(F)c1cc2c(N[C@H]3c4ccccc4OC[C@@H]3N3CCCC3)nccc2[nH]1 [EP-0043873, N-((3R,4S)-3-(pyrrolidin-1-yl)chroman-4-yl)-2-(trifluoromethyl)-1H-pyrrolo[3,2-c]pyridin-4-amine] | 130 nM | 71.5 |
| FC1CN([C@H]2COc3ccccc3[C@@H]2Nc2nccc3[nH]c(C(F)(F)F)cc23)C1 [EP-0043908, N-((3R,4S)-3-(3-fluoroazetidin-1-yl)chroman-4-yl)-2-(trifluoromethyl)-1H-pyrrolo[3,2-c]pyridin-4-amine] | 200 nM | 125.0 |
| N#C[C@H]1CCN([C@H]2COc3ccccc3[C@@H]2Nc2ncnc3[nH]c(C4CC4)cc23)C1 [EP-0042930] | 38 nM | 105.8 |
| c1ccc2c(c1)OC[C@H](N1CCCC1)[C@H]2Nc1ncnc2[nH]c(C3CC3)cc12 [EP-0042659, 6-Cyclopropyl-N-((3R,4S)-3-(Pyrrolidin-1-Yl)Chroman-4-Yl)-7H-Pyrrolo[2,3-D]Pyrimidin-4-Amine] | 251 nM | 54.54 |
| F[C@@H]1CCN([C@H]2COc3ccccc3[C@@H]2Nc2ncnc3[nH]c(C4CC4)cc23)C1 [EP-0042534, 6-Cyclopropyl-N-((3R,4S)-3-((R)-3-Fluoropyrrolidin-1-Yl)Chroman-4-Yl)-7H-Pyrrolo[2,3-D]Pyrimidin-4-Amine] | 349 nM | 71.21 |
| FC(F)(F)C1CN([C@H]2COc3ccccc3[C@@H]2Nc2ncnc3[nH]c(C4CC4)cc23)CCO1 (single isomer, unassigned) [EP-0042928] | 170 nM | 42.17 |
| CO[C@H]1CCCN([C@H]2COc3ccccc3[C@@H]2Nc2ncnc3[nH]c(C4CC4)cc23)C1 [EP-0042537, 6-Cyclopropyl-N-((3R,4S)-3-((S)-3-Methoxypiperidin-1-Yl)Chroman-4-Yl)-7H-Pyrrolo[2,3-D]Pyrimidin-4-Amine] | 268 nM | 37.03 |

Further lines, with some results ahead:

| EC50 [1] | SMILES | Mito-Safety Index (highest safe dose/EC50) (SKOV3 cells) |
| --- | --- | --- |
| 230 nM | C[C@@H]1CN([C@H]2COc3c(F)cccc3[C@@H]2Nc2ncnc3[nH]c(C(F)(F)F)cc23)CCO1 [EP-0043827, N-((3R,4S)-8-fluoro-3-((R)-2-methylmorpholino)chroman-4-yl)-6-(trifluoromethyl)-7H-pyrrolo[2,3-d]pyrimidin-4-amine] | 108.7 |
| 90 nM | FC(F)(F)O[C@H]1CCN([C@H]2COc3ccccc3[C@@H]2Nc2ncnc3[nH]c(C(F)(F)F)cc23)C1 [EP-0043865, N-((3R,4S)-3-((S)-3-(trifluoromethoxy)pyrrolidin-1-yl)chroman-4-yl)-6-(trifluoromethyl)-7H-pyrrolo[2,3-d]pyrimidin-4-amine] | 44.4 |
| 30 nM | C[C@@H]1CCN([C@H]2COc3ccccc3[C@@H]2Nc2ncnc3[nH]c(C(F)(F)F)cc23)C1 [EP-0043821, N-((3R,4S)-3-((R)-3-methylpyrrolidin-1-yl)chroman-4-yl)-6-(trifluoromethyl)-7H-pyrrolo[2,3-d]pyrimidin-4-amine] | 70.0 |
| 480 nM | Fc1ccc2c(c1)OC[C@H](N1CC[C@H](F)C1)[C@H]2Nc1ncnc2[nH]c(C(F)(F)F)cc12 [EP-0043839, N-((3R,4S)-7-fluoro-3-((S)-3-fluoropyrrolidin-1-yl)chroman-4-yl)-6-(trifluoromethyl)-7H-pyrrolo[2,3-d]pyrimidin-4-amine] | 41.3 |
| 250 nM | C[C@@H]1CN([C@H]2COc3cc(F)ccc3[C@@H]2Nc2ncnc3c2cc(C(F)(F)F)n3C)CCO1 [EP-0043854, N-((3R,4S)-7-fluoro-3-((R)-2-methylmorpholino)chroman-4-yl)-7-methyl-6-(trifluoromethyl)-7H-pyrrolo[2,3-d]pyrimidin-4-amine] | 99.6 |
